Data reported in article PMC5513091, “A novel Alzheimer’s disease drug candidate targeting inflammation and fatty acid metabolism” (Alzheimer's Research & Therapy, 2017).

How the values were obtained:
[1] = system: Aβ1–42; test: Aβ enzyme-linked immunosorbent assay; type: in vivo, mice
Experimental: Hippocampal tissue samples were homogenized in 10 volumes of radioimmunoprecipitation assay (RIPA) lysis buffer (50 mM Tris, pH 7.5, 150 mM NaCl, 0.1% SDS, 0.5% deoxycholate, and 1% Nonidet P-40) containing a cocktail of protease and phosphatase inhibitors [[…] each of pepstatin A, aprotinin, phosphoramidon, and leupeptin; 0.5 mM 4-(2-aminoethyl)benzenesulfonyl fluoride hydrochloride; 1 mM ethylene glycol-bis(β-aminoethyl ether)-N,N,N′,N′-tetraacetic acid; 5 mM fenvalerate; and 5 mM cantharidin]. Samples were sonicated (2 × 10 seconds) and centrifuged first at 10,000 × g for 10 minutes and then at 100,000 × g for 60 minutes at 4 °C. The 100,000 × g pellet was taken up either in 6 M guanidine for Aβ analysis or in SDS sample buffer for Western blot analysis. Protein concentrations in the cell extracts were determined using a bicinchoninic acid protein assay (Pierce Biotechnology, Rockford, IL, USA). Equal amounts of protein were solubilized in 2.5× SDS sample buffer, separated on 12% SDS-polyacrylamide gels, transferred to Immobilon-P (EMD Millipore, Billerica, MA, USA), and immunoblotted with the antibodies indicated in the Materials subsection above. For Western blot experiments, protein levels were normalized to actin levels. An unpaired t test was performed to compare two groups at a single time point. When comparing multiple groups, one-way analysis of variance (ANOVA) followed by Tukey’s post hoc test was used. All statistical analysis was conducted using GraphPad InStat software.
Aβ1–42 levels in hippocampal lysate were analyzed using Aβ1–42 enzyme-linked immunosorbent assay kits from Invitrogen (catalogue number KHB3442). All kit reagents were brought to room temperature before use. […] A quantity of 50 μl of Aβ peptide standards and samples was added in duplicate to 96-well plates precoated with antibody to the NH2-terminal region of Aβ. […] Stop solution was then added at 100 μl to each well, followed by reading the absorbance of each well at 450 nm. […] The concentrations of the samples were calculated from the standard curve and multiplied by the dilution factor.

[2] = system: rat hippocampal neurons; test: Aβ toxicity (extracellular); type: cell-based; conditions: Hippocampal neuron, read-out: Half-maximal effective concentration, Aβ toxicity (extracellular)
[3] = system: protein kinases; test: Protein Kinase Screen; type: binding
Source text: (§1) Before undertaking animal experiments, it is important to determine if a new drug candidate has a chance for further clinical development by determining its pharmacological properties of bioavailability and brain penetrance as well as predicted safety.

[4] = target: hERG (Homo sapiens, UniProt Q12809); test: hERG assay
Sequence of hERG (Q12809 whole entry): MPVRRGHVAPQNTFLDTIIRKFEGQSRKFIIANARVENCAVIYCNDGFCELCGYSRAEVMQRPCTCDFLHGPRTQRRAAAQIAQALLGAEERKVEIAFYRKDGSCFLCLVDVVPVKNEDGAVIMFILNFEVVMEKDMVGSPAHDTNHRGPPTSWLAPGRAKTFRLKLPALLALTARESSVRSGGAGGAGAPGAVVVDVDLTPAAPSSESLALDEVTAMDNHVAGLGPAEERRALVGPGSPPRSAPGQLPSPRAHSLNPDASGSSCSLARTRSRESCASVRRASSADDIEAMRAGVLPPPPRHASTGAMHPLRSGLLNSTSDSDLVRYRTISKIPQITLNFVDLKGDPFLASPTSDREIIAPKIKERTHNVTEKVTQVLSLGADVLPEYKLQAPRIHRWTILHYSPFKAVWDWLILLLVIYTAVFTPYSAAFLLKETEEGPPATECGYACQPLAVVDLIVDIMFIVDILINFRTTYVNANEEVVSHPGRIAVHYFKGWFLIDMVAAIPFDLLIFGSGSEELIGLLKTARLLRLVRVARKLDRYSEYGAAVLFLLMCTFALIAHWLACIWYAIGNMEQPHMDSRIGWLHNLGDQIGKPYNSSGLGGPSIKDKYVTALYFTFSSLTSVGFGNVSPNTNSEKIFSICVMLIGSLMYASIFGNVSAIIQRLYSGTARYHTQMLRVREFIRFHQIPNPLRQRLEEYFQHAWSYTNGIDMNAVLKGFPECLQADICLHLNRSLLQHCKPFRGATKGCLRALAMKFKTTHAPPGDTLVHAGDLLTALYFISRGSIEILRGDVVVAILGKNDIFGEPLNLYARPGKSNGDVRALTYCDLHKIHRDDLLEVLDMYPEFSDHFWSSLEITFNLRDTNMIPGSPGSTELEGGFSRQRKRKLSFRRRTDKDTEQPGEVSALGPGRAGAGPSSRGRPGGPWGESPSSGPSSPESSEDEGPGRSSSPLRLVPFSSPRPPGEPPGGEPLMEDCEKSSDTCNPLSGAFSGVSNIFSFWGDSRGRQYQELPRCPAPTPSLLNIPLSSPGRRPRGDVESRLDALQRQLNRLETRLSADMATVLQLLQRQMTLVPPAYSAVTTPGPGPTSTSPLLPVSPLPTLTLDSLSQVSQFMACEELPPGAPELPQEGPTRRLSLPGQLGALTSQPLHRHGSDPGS

[5] = system: Caco 2; test: Caco 2 Transport; type: in vitro ADME
[6] = system: HT22 cells expressing the brain-derived neurotrophic factor (BDNF) receptor transmembrane receptor kinase B; test: BDNF-like activity (rescue from serum starvation); type: cell-based; conditions: Mus musculus, HT-22, read-out: Half-maximal effective concentration, BDNF-like activity
Experimental: (§2) The various phenotypic screening assays were conducted as previously described. Briefly, HT-22, primary cortical neurons, or MC65 was plated and exposed to the different environmental stresses. Cells were treated with varying concentrations of CAD-31, and half-maximal effective concentration (EC50) was determined on the basis of cell viability.
(§3) • An assay that mimics the dramatic loss of neurotrophic support in the old brain is the trophic factor withdrawal assay. Primary embryonic day 18 cortical cells are plated at low density in serum-free medium. At low density, the cells die within 2 days; they can be rescued by combinations of neurotrophic growth factors, but not by one alone ([19] and unpublished data). […] BDNF is a molecule that is also involved in promoting memory and neurogenesis and is reduced in the brain with age and in AD, as well as in other neurological disorders. BDNF has long been considered a drug target for AD [23]. […] A reduction in GSH is a common denominator of old age and essentially all chronic central nervous system (CNS) diseases. J147 and CAD-31 both effectively reduce oxidative stress, with EC50 of 6 nM and 20 nM, respectively. • CAD-31 also prevents loss of energy metabolism that leads to neuron cell death in an in vitro ischemia model. […]

[7] = system: primary cortical neurons; test: Oxytosis; type: cell-based; conditions: Primary cortical neuron; read-out: Half-maximal effective concentration, Oxytosis
Experimental: as §2, §3

[8] = system: panel of 60 brain ion channels, transporters, and receptors; test: Lead Profile Screen; type: binding
Source text: as §1

[9] = Acute Toxicity (PO); type: in vivo
[10] = brain of CAD-31 treated hAPPswe/PS1ΔE9 mice (AD+31)

Cc1ccc(N(/N=C/c2cccc(OC(F)(F)F)c2)C(=O)C(F)(F)F)c(C)c1 [CAD-31]
RIPA Insoluble Aβ1-42 [1, 10]: 4581 ± 489.3 pg/mg protein | RIPA Soluble Aβ1-42 [1, 10]: 16.57 ± 3.359 pg/mg protein | levels of soluble or insoluble Aβ1–42 ([1]; therapeutic paradigm, AD mice): did not reduce the levels of either soluble or insoluble Aβ1–42 | EC50 [2]: 27 nM | interaction with known protein kinases ([3]; 10 μM): did not interact | EC50 ([3]; all kinases): > 10000 nM | activity in the hERG assay ([4]; 10 μM): showed no sign of acute toxicity or activity | EC50 at 10 µM ([4]; human): > 10000 nM | Caco 2 Transport [5]: High | EC50 [6]: 95 nM | EC50 [7]: 20 nM | interaction with proteins in the lead profile screen panel ([8]; 10 μM, 60 brain ion channels, transporters, and receptors): did not interact | EC50 ([8]; all targets of the panel): > 10000 nM | acute toxicity [9]: no sign of acute toxicity | Oral acute toxicity LD50 ([9]; observation one week post gavage): >2000 mg/kg
